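Compound exposure: 48 hours, 5 concentrations, 96-well plates. The concentration for full growth arrest is given as TGI.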 Where a SMILES comes first, the peptide text is derived from it. The star is where a group is joined. Cbz = O=C(OCc1ccccc1)*
What was measured:
Assay in all cases: DTP human tumour cell line panel, 48 h
NCI-H23 lung = system: NCI-H23 lung
SR leukemia = system: SR leukemia
RPMI-8226 leukemia = system: RPMI-8226 leukemia
MOLT-4 leukemia = system: MOLT-4 leukemia
DU-145 prostate = system: DU-145 prostate
UACC-257 melanoma = system: UACC-257 melanoma
LOX IMVI melanoma = system: LOX IMVI melanoma
SK-MEL-28 melanoma = system: SK-MEL-28 melanoma
HOP-62 NSCLC = system: HOP-62 NSCLC
NCI-H522 lung = system: NCI-H522 lung
SF-295 CNS = system: SF-295 CNS
A498 renal = system: A498 renal
786-0 renal = system: 786-0 renal
OVCAR-3 ovarian = system: OVCAR-3 ovarian
HCC-2998 colon = system: HCC-2998 colon
SN12C renal = system: SN12C renal
CCRF-CEM leukemia = system: CCRF-CEM leukemia
SK-OV-3 ovarian = system: SK-OV-3 ovarian
SNB-19 CNS = system: SNB-19 CNS
MALME-3M melanoma = system: MALME-3M melanoma

| SMILES | TGI (NCI-H23 lung) [µM] | TGI (SR leukemia) [µM] | TGI (RPMI-8226 leukemia) [µM] | TGI (MOLT-4 leukemia) [µM] | TGI (DU-145 prostate) [µM] | TGI (UACC-257 melanoma) [µM] | TGI (LOX IMVI melanoma) [µM] | TGI (SK-MEL-28 melanoma) [µM] | TGI (HOP-62 NSCLC) [µM] | TGI (NCI-H522 lung) [µM] | TGI (SF-295 CNS) [µM] | TGI (A498 renal) [µM] | TGI (786-0 renal) [µM] | TGI (OVCAR-3 ovarian) [µM] | TGI (HCC-2998 colon) [µM] | TGI (SN12C renal) [µM] | TGI (CCRF-CEM leukemia) [µM] | TGI (SK-OV-3 ovarian) [µM] | TGI (SNB-19 CNS) [µM] | TGI (MALME-3M melanoma) [µM] |
| --- | --- | --- | --- | --- | --- | --- | --- | --- | --- | --- | --- | --- | --- | --- | --- | --- | --- | --- | --- | --- |
| CCOc1cc(C2SCC(=O)N2c2ccc3c(c2)Oc2c(Cl)c4c(c(Cl)c2=N3)Oc2cc(N3C(=O)CSC3c3ccc(O)c(OCC)c3)ccc2N=4)ccc1O (stereo not drawn) | 47.6 | > 100 | > 100 | > 100 | > 100 | > 100 | > 100 | > 100 | > 100 | > 100 | > 100 | > 100 | > 100 | > 100 | > 100 | – | – | – | – | – |
| Cc1ccc(N=C2OP(=O)(Nc3ccc(C)cc3)Oc3ccccc32)cc1 (stereo not drawn) | > 100 | > 100 | – | > 100 | > 100 | > 100 | > 100 | > 100 | > 100 | – | > 100 | > 100 | > 100 | > 100 | > 100 | > 100 | > 100 | > 100 | > 100 | > 100 |
| N#Cc1sc2c(c1OC(=O)c1ccc(Cl)cc1Cl)c(=O)n(-c1ccccc1)c(=S)n2-c1ccccc1 | 50.8 | > 100 | 60 | 45.9 | > 100 | > 100 | 39.8 | > 100 | 96.4 | 7.3 | 81.2 | 61.2 | 77.3 | 76.3 | > 100 | 57.8 | 26.7 | > 100 | 60.6 | – |
| COc1ccc2c(=O)c3c([nH]c2c1)OCC3=O | > 100 | > 100 | > 100 | > 100 | > 100 | > 100 | > 100 | > 100 | > 100 | – | > 100 | > 100 | > 100 | – | > 100 | – | > 100 | > 100 | > 100 | – |
| Cc1cc(C#N)c(Nc2ccc(F)cc2[N+](=O)[O-])s1 | > 100 | > 100 | > 100 | > 100 | > 100 | > 100 | – | > 100 | > 100 | > 100 | > 100 | > 100 | > 100 | > 100 | > 100 | > 100 | > 100 | > 100 | > 100 | > 100 |
| O=C1NC(=NCc2ccc(F)cc2)N/C1=C\c1ccccc1Cl | – | > 100 | – | > 100 | 46.8 | > 100 | 28.6 | 67.3 | 35.3 | 30.4 | 35.8 | 34 | 24 | 32.6 | > 100 | 29.6 | – | 63.2 | 39.7 | 41.8 |
| Cc1cn(C2CC(N=[N+]=[N-])C(CO)O2)c(=O)n(CCCCBr)c1=O (stereo not drawn) | > 100 | – | > 100 | > 100 | > 100 | > 100 | > 100 | > 100 | > 100 | > 100 | > 100 | > 100 | > 100 | > 100 | > 100 | > 100 | > 100 | > 100 | > 100 | > 100 |
| COC(=O)[C@@H]1C[C@]2(Br)c3ccccc3N(S(=O)(=O)c3ccccc3)[C@@H]2N1C(=O)OC | > 100 | > 100 | > 100 | > 100 | > 100 | 14.6 | – | > 100 | > 100 | > 100 | – | > 100 | > 100 | > 100 | > 100 | > 100 | > 100 | > 100 | > 100 | > 100 |
| COC(=O)C(CC(C)C)NC(=O)C(CCCN=C(N)N)NC(=O)OCc1ccccc1 (stereo not drawn) (Cbz-Arg-Leu-OMe; configuration not given here) | > 100 | > 100 | > 100 | > 100 | > 100 | – | > 100 | > 100 | > 100 | > 100 | > 100 | – | > 100 | > 100 | > 100 | > 100 | > 100 | > 100 | > 100 | > 100 |
| CNC(=O)N1CN(c2ccccc2)C2(CCN(Cc3ccccc3)CC2)C1=O | > 100 | 52.3 | > 100 | 46.8 | > 100 | > 100 | > 100 | > 100 | > 100 | > 100 | > 100 | – | > 100 | > 100 | 39.8 | > 100 | > 100 | > 100 | > 100 | > 100 |

From PubChem BioAssay (NCI)
